# According to paper PMC3196794 (Chemical research in toxicology, 2011):
# Like-named read-outs stand apart in the source and are kept apart here.
# How the values were obtained:
# hSULT2A1 [1] = biological target: T1, hSULT2A1 (Homo sapiens, UniProt Q06520); experiment: CoMFA 3D-QSAR model for inhibition of hSULT2A1 by OHPCBs; settings: for Difference between the experimental and the predicted values for pIC50: CoMFA Model 1
# T1 sequence (Q06520 1-285): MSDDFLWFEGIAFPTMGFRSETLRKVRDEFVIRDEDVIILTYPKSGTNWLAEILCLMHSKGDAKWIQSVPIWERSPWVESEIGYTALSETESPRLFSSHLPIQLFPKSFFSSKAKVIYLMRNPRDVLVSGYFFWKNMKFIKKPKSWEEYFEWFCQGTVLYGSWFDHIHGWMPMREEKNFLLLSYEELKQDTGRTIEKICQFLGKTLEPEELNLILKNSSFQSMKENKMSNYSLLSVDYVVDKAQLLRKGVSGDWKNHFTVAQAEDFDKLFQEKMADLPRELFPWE
# hSULT2A1 [2] = biological target: T1, hSULT2A1; experiment: Inhibition of the sulfation of DHEA catalyzed by hSULT2A1; type: biochemical
# hSULT2A1 [3] = biological target: T1, hSULT2A1; experiment: OHPCBs as substrates for hSULT2A1; type: biochemical; settings: 200 μM PAPS; fit to substrate inhibition equation
# [4] = pH 7
# hSULT2A1 [5] = biological target: T1, hSULT2A1; settings: 200 μM PAPS; cited from earlier work
# [6] = IC50 (inhibition of the sulfation of DHEA catalyzed by hSULT2A1), 1 μM [3H]DHEA, 200 μM PAPS, pH 7.0, 37°C, 10 min, mean ± standard error of the fit
# [7] = Actual pIC50, -log IC50 (M), Table 3
Structure (SMILES),Difference between the experimental and the predicted values for pIC50 (hSULT2A1 [1]),IC50 (hSULT2A1 [2]; [6]) [M],IC50 (hSULT2A1 [2]; [7]) [M],Kis (substrate inhibition constant) (hSULT2A1 [3]) [µM],further results
"Oc1ccc(-c2ccc(Cl)cc2)cc1O [3′,4′-diOHPCB 3, 3′, 4′-dihydroxy-4-monochlorobiphenyl]",0.072,9.6e-05 ± 1.2e-06,–,–,"IC50 (hSULT2A1 [2]; IC50 (experimental, Table 3), experimental values used for CoMFA Model 1): 9.57e-05 M"
"Oc1ccc(-c2cccc(Cl)c2Cl)cc1O [3′,4′-diOHPCB 5, 3′, 4′-dihydroxy-2,3-dichlorobiphenyl]",0.054,1.6e-05 ± 1.1e-06,1.59e-05,–,–
"Oc1ccc(-c2ccc(Cl)cc2)c(Cl)c1 [4-OHPCB 8, 4-hydroxy-2, 4′-dichlorobiphenyl]",0.303,1e-05 ± 1.2e-06,1e-05,65.4 ± 73.8,–
"Oc1ccc(-c2cccc(Cl)c2)cc1Cl [4-OHPCB 11, 4-hydroxy-3, 3′-dichlorobiphenyl]",0.011,1.4e-05 ± 1.2e-06,1.4e-05,51.9 ± 65.7,–
"Oc1c(Cl)cc(-c2ccccc2)cc1Cl [4-OHPCB 14, 4-hydroxy-3,5-dichlorobiphenyl]",0.196,1.3e-05 ± 1.1e-06,1.3e-05,220 ± 56,"fold difference between the predicted and the actual IC50 values (hSULT2A1 [1]; CoMFA Model 2): 3.8 fold; IC50 (hSULT2A1 [2]; Actual IC50, Table 4): 1.3e-05 M"
"Oc1c(Cl)cc(-c2ccccc2Cl)cc1Cl [4-OHPCB 34, 4-hydroxy-2′, 3,5-trichlorobiphenyl]",0.199,–,6e-07,47.4 ± 16.2,fold decrease in IC50 compared with 4-OHPCB 36 (hSULT2A1 [2]; chlorine in the non-phenolic ring changed from meta to ortho): approximately 7 fold
"Oc1c(Cl)cc(-c2cccc(Cl)c2)cc1Cl [4-OHPCB 36, 4-hydroxy-3, 3′, 5-trichlorobiphenyl]",0.088,4.4e-06 ± 1.2e-06,4.4e-06,39.4 ± 23.1,–
"Oc1ccc(-c2ccc(Cl)cc2)cc1 [4′-OHPCB 3, 4′-hydroxy-4-monochlorobiphenyl]",0.026,2.8e-05 ± 1.1e-06,2.81e-05,–,–
"Oc1ccc(-c2ccccc2Cl)cc1Cl [4′-OHPCB 6, 4′-hydroxy-2, 3′-dichlorobiphenyl]",0.108,9.8e-06 ± 1.1e-06,9.79e-06,–,–
"Oc1ccc(-c2cc(Cl)ccc2Cl)cc1 [4′-OHPCB 9, 4′-hydroxy-2,5-dichlorobiphenyl]",0.011,7.5e-06 ± 1.1e-06,7.5e-06,–,–
"Oc1ccc(-c2ccc(Cl)c(Cl)c2)cc1 [4′-OHPCB 12, 4′-hydroxy-3,4-dichlorobiphenyl]",0.039,1.6e-05 ± 1.1e-06,1.58e-05,–,"IC50 (hSULT2A1 [2]; Actual IC50, Table 4): 1.58e-05 M"
"Oc1ccc(-c2ccc(Cl)cc2Cl)cc1Cl [4′-OHPCB 25, 4′-hydroxy-2, 3′, 4-trichlorobiphenyl]",0.084,4.4e-06 ± 1.3e-06,4.4e-06,–,"solubility [4]: low solubility; IC50 (hSULT2A1 [2]; Actual IC50, Table 4): 4.4e-06 M"
"Oc1ccc(-c2ccc(Cl)c(Cl)c2)c(Cl)c1 [4′-OHPCB 33, 4′-hydroxy-2′, 3,4-trichlorobiphenyl]",0.099,2.5e-06 ± 1.1e-06,2.5e-06,217 ± 189,–
"Oc1c(Cl)cc(-c2ccc(Cl)cc2Cl)cc1Cl [4′-OHPCB 68, 4′-hydroxy-2, 3′, 4, 5′-tetrachlorobiphenyl]",0.056,–,8e-07,–,–
"Oc1ccc(Cl)cc1-c1ccc(Cl)c(Cl)c1 [6′-OHPCB 35, 6′-hydroxy-3, 3′-4 trichlorobiphenyl]",0.088,–,–,–,"Actual pIC50 (hSULT2A1 [2]; -log IC50 (M), Table 3): 4.810; IC50 (hSULT2A1 [2]; read-out: IC50 (inhibition of the sulfation of DHEA catalyzed by hSULT2A1), 1 μM [3H]DHEA, 200 μM PAPS, pH 7.0, 37°C, 10 min, mean ± standard error of the fit): 1.6e-05 ± 1.1e-06 M"
"C[C@]12CC[C@H](O)CC1=CC[C@@H]1[C@@H]2CC[C@]2(C)C(=O)CC[C@@H]12 [DHEA, dehydroepiandrosterone]",–,–,–,–,Kis with DHEA as substrate (hSULT2A1 [5]): 8 ± 3 µM; Vmax with DHEA as substrate (hSULT2A1 [5]): 245 ± 40 nmol/min/mg
